Test results taken from patent publication US20100305120A1, “COMPOUNDS FOR TREATING MUSCULAR DYSTROPHY” (BIOMARIN IGA LIMITED, priority 2008, published 2010).

Test system: Utrophin A promoter linked to a luciferase reporter gene
Assay: Luciferase reporter assay (murine H2K cells), H2K/mdx/Utro A reporter cell line
Format: cell-based
Details: 48 h, mdx mouse H2K Utrophin A reporter cells, read-out: Activity (luciferase level relative to control); for activity at 10 µM: test compound concentration 10 μM
In short: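 Immortalized mdx mouse H2K myoblasts stably carrying ~5 kb utrophin A promoter–luciferase construct, kept at 33 °C, 10% CO2. Compound added 24 h after plating, typically at 10 μM final, for 48 h; luciferase measured by cell lysis and luminescence.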

## CCc1ccc(Cn2nc(C(=O)Nc3ccc4c(c3)OCO4)c3ccccc32)cc1 [Compound 132, N-(benzo[d][1,3]dioxol-5-yl)-1-(4-ethylbenzyl)-1H-indazole-3-carboxamide]
  activity at 10 µM: 201 to 300%

## Cc1ccc(NC(=O)c2nn(Cc3ccc(S(C)(=O)=O)cc3)c3ccccc23)cn1 [Compound 133, N-(6-methylpyridin-3-yl)-1-(4-(methylsulfonyl)benzyl)-1H-indazole-3-carboxamide]
  activity at 10 µM: < 200%

## Cc1ccc(NC(=O)c2nn(Cc3ccc(S(C)(=O)=O)cc3)c3ccccc23)nc1 [Compound 134, N-(5-methylpyridin-2-yl)-1-(4-(methylsulfonyl)benzyl)-1H-indazole-3-carboxamide]
  activity at 10 µM: < 200%

## CN(C)C(=O)c1cccc(Cn2nc3ccccc3c2C(=O)Nc2ccc3c(c2)OC(F)(F)O3)c1 [Compound 135, N-(2,2-difluorobenzo[d][1,3]dioxol-5-yl)-2-(3-(dimethylcarbamoyl)benzyl)-2H-indazole-3-carboxamide]
  activity at 10 µM: 201 to 300%

## CS(=O)(=O)c1ccccc1Cn1nc(C(=O)Nc2ccc3c(c2)OCO3)c2ccccc21 [Compound 136, N-(benzo[d][1,3]dioxol-5-yl)-1-(2-(methylsulfonyl)benzyl)-1H-indazole-3-carboxamide]
  activity at 10 µM: < 200%

## O=C(Nc1ccc2c(c1)OCO2)c1nn(Cc2ccc(S(=O)(=O)N3CCOCC3)cc2)c2ccccc12 [Compound 137, N-(benzo[d][1,3]dioxol-5-yl)-1-(4-(morpholinosulfonyl)benzyl)-1H-indazole-3-carboxamide]
  activity at 10 µM: 201 to 300%

## Cc1ccc(NC(=O)c2nn(Cc3ccc(C(=O)N(C)C)cc3)c3ccccc23)cc1 [Compound 138, 1-(4-(dimethylcarbamoyl)benzyl)-N-p-tolyl-1H-indazole-3-carboxamide]
  activity at 10 µM: 201 to 300%

## CC(C)c1ccc(NC(=O)c2nn(Cc3ccc(C(=O)N(C)C)cc3)c3ccccc23)cc1 [Compound 139, 1-(4-(dimethylcarbamoyl)benzyl)-N-(4-isopropylphenyl)-1H-indazole-3-carboxamide]
  activity at 10 µM: < 200%

## CS(=O)(=O)c1ccc(C(=O)n2nc(C(=O)Nc3ccc4c(c3)OCO4)c3ccccc32)cc1 [Compound 140, N-(benzo[d][1,3]dioxol-5-yl)-1-(4-(methylsulfonyl)benzoyl)-1H-indazole-3-carboxamide]
  activity at 10 µM: 301 to 400%

## O=C(Nc1ccc2c(c1)OCO2)c1nn(Cc2ccc3ccccc3c2)c2ccccc12 [Compound 141, N-(benzo[d][1,3]dioxol-5-yl)-1-(naphthalen-2-ylmethyl)-1H-indazole-3-carboxamide]
Test compound concentration 0.3 μM
  activity at 0.3 µM: < 200%

## O=C(Nc1ccc2c(c1)OCO2)c1nn(Cc2ccc(C(=O)N3CCCC3)cc2)c2ccccc12 [Compound 142, N-(benzo[d][1,3]dioxol-5-yl)-1-(4-(pyrrolidine-1-carbonyl)benzyl)-1H-indazole-3-carboxamide]
  activity at 10 µM: 201 to 300%

## O=C(Nc1ccc2c(c1)OCCO2)c1nn(Cc2ccc(C(=O)N3CCOCC3)cc2)c2ccccc12 [Compound 143, N-(2,3-dihydrobenzo[b][1,4]dioxin-6-yl)-1-(4-(morpholine-4-carbonyl)benzyl)-1H-indazole-3-carboxamide]
  activity at 10 µM: 301 to 400%

## COc1ccc(NC(=O)c2nn(Cc3ccc(C(=O)N4CCOCC4)cc3)c3ccccc23)cc1 [Compound 144, N-(4-methoxyphenyl)-1-(4-(morpholine-4-carbonyl)benzyl)-1H-indazole-3-carboxamide]
  activity at 10 µM: 301 to 400%

## O=C(Nc1ccc2c(c1)OCO2)c1nn(Cc2ccon2)c2ccccc12 [Compound 145, N-(benzo[d][1,3]dioxol-5-yl)-1-(isoxazol-3-ylmethyl)-1H-indazole-3-carboxamide]
  activity at 10 µM: < 200%

## CS(=O)(=O)c1ccc(Cn2cc(C(=O)Nc3ccc4c(c3)OCO4)c3ccccc32)cc1 [Compound 146, N-(benzo[d][1,3]dioxol-5-yl)-1-(4-(methylsulfonyl)benzyl)-1H-indole-3-carboxamide]
  activity at 10 µM: < 200%

## CCn1ccc(C(=O)Nc2ccc(Cl)cc2Cl)n1 [Compound 147, N-(2,4-dichlorophenyl)-1-ethyl-1H-pyrazole-3-carboxamide]
  activity at 10 µM: < 200%

## CS(=O)(=O)c1ccc(Cn2ccc(C(=O)Nc3ccc4c(c3)OCO4)n2)cc1 [Compound 148, N-(benzo[d][1,3]dioxol-5-yl)-1-(4-(methylsulfonyl)benzyl)-1H-pyrazole-3-carboxamide]
Test compound concentration 30 μM
  activity at 30 µM: < 200%

## CS(=O)(=O)c1ccc(Cn2nc(C(=O)Nc3ccc4c(c3)OCO4)c3c2CCCC3)cc1 [Compound 149, N-(benzo[d][1,3]dioxol-5-yl)-1-(4-(methylsulfonyl)benzyl)-4,5,6,7-tetrahydro-1H-indazole-3-carboxamide]
Test compound concentration 0.1 μM
  activity at 0.1 µM: < 200%

## CS(=O)(=O)c1ccc(Cn2nc(C(=O)Nc3ccc4c(c3)OCO4)c3c2CCC3)cc1 [Compound 150, N-(benzo[d][1,3]dioxol-5-yl)-1-(4-(methylsulfonyl)benzyl)-1,4,5,6-tetrahydrocyclopenta[c]pyrazole-3-carboxamide]
Test compound concentration 1 μM
  activity at 1 µM: < 200%

## CCN(CC)C(=O)c1ccc(Cn2nc(C(=O)Nc3ccc4c(c3)OCO4)c3ccccc32)cc1 [Compound 151, N-(benzo[d][1,3]dioxol-5-yl)-1-(4-(diethylcarbamoyl)benzyl)-1H-indazole-3-carboxamide]
  activity at 10 µM: < 200%

## CC(C)S(=O)(=O)c1ccc(Cn2nc(C(=O)Nc3ccc4c(c3)OCO4)c3ccccc32)cc1 [Compound 152, N-(benzo[d][1,3]dioxol-5-yl)-1-(4-(isopropylsulfonyl)benzyl)-1H-indazole-3-carboxamide]
  activity at 10 µM: < 200%

## CCc1ccc(Cn2nc(C(=O)Nc3ccc4c(c3)OCO4)c3ccccc32)nc1 [Compound 153, N-(benzo[d][1,3]dioxol-5-yl)-1-((5-ethylpyridin-2-yl)methyl)-1H-indazole-3-carboxamide]
  activity at 10 µM: < 200%

## CC(C)c1nc(Cn2nc(C(=O)Nc3ccc4c(c3)OCO4)c3ccccc32)no1 [Compound 154, N-(benzo[d][1,3]dioxol-5-yl)-1-((5-isopropyl-1,2,4-oxadiazol-3-yl)methyl)-1H-indazole-3-carboxamide]
  activity at 10 µM: < 200%

## CCc1nnc(Cn2nc(C(=O)Nc3ccc4c(c3)OCO4)c3ccccc32)o1 [Compound 155]
  activity at 10 µM: < 200%

## CCS(=O)(=O)c1ccc(Cn2nc(C(=O)Nc3ccc4c(c3)OCO4)c3ccccc32)cc1 [Compound 156, N-(benzo[d][1,3]dioxol-5-yl)-1-(4-(ethylsulphonyl)benzyl)-1H-indazole-3-carboxamide]
  activity at 10 µM: 201 to 300%

## CS(=O)(=O)c1ccc(Cn2nc(C(=O)O)c3ccccc32)cc1 [Compound 157, 1-(4-(methylsulphonyl)benzyl)-1H-indazole-3-carboxylic acid]
  activity at 10 µM: < 200%

## CCc1ccc(Cn2nc(C(=O)Nc3ccc4c(c3)OCCO4)c3ccccc32)cc1 [Compound 158, N-(2,3-dihydrobenzo[b][1,4]dioxin-6-yl)-1-(4-ethylbenzyl)-1H-indazole-3-carboxamide]
  activity at 10 µM: 201 to 300%

## CCc1ccc(Cn2nc(C(=O)Nc3ccc4c(c3)OC(F)(F)C(F)(F)O4)c3ccccc32)cc1 [Compound 159, 1-(4-ethylbenzyl)-N-(2,2,3,3-tetrafluoro-2,3-dihydrobenzo[b][1,4]dioxin-6-yl)-1H-indazole-3-carboxamide]
  activity at 10 µM: < 200%
